This passage reports T/C results from PubChem BioAssay AID256 (DTP/NCI, 2004).

Where “and” joins values, the source holds several entries; their conditions need not be identical. Equal entries are not always repeated. Toxic doses and inconclusive results are not listed.

For this test, the system named is CD2F1 mice, L1210 leukemia ip, survival T/C. Briefly: NCI In Vivo Anticancer Drug Screen. Data for tumor model L1210 Leukemia (intraperitoneal) in CD2F1 (CDF1) mice. The settings on record: higher = longer survival. The procedure, abridged: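 In this screen, transplantable tumors were grown in mice given either the compound or its vehicle. Results were expressed as the treated measurement relative to the control measurement.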

The mark [1] stands for this setting: endpoint: mean survival time, dose: 50.0 mg/kg/injection, schedule: Q01DX009 (ip), vehicle: saline.
[2] abbreviates: endpoint: mean survival time, dose: 50.0 mg/kg/injection, schedule: Q04DX003 (ip), vehicle: saline.
Where [3] appears, read: endpoint: mean survival time, dose: 75.0 mg/kg/injection, schedule: Q04DX003 (ip), vehicle: saline.
Setting [4] is: endpoint: mean survival time, dose: 100.0 mg/kg/injection, schedule: Q01DX009 (ip), vehicle: saline.
[5] abbreviates: endpoint: mean survival time, dose: 100.0 mg/kg/injection, schedule: Q04DX003 (ip), vehicle: saline.
Setting [6] is: endpoint: mean survival time, dose: 150.0 mg/kg/injection, schedule: Q04DX003 (ip), vehicle: saline.
Where [7] appears, read: endpoint: mean survival time, dose: 200.0 mg/kg/injection, schedule: Q01DX009 (ip), vehicle: saline.
Setting [8] is: endpoint: mean survival time, dose: 200.0 mg/kg/injection, schedule: Q04DX003 (ip), vehicle: saline.
Setting [9] is: endpoint: mean survival time, dose: 100.0 mg/kg/injection, schedule: Q01DX009 (ip), vehicle: saline with Tween-80.
The mark [10] stands for this setting: endpoint: mean survival time, dose: 100.0 mg/kg/injection, schedule: Q04DX003 (ip), vehicle: saline with Tween-80.
Setting [11] is: endpoint: mean survival time, dose: 200.0 mg/kg/injection, schedule: Q01DX009 (ip), vehicle: saline with Tween-80.
Where [12] appears, read: endpoint: mean survival time, dose: 200.0 mg/kg/injection, schedule: Q04DX003 (ip), vehicle: saline with Tween-80.
[13] abbreviates: endpoint: mean survival time, dose: 400.0 mg/kg/injection, schedule: Q01DX009 (ip), vehicle: saline with Tween-80.
Where [14] appears, read: endpoint: mean survival time, dose: 400.0 mg/kg/injection, schedule: Q04DX003 (ip), vehicle: saline with Tween-80.

In the case of `CS(=O)(=O)OCCCN(CCCOS(C)(=O)=O)CCCN1CCOCC1`, the T/C (endpoint: mean survival time, dose: 10.0 mg/kg/injection, schedule: Q01DX009 (ip), vehicle: saline) is 197 % of control; the T/C (endpoint: mean survival time, dose: 12.0 mg/kg/injection, schedule: Q01DX001 (ip), vehicle: saline) is 118 % of control; the T/C (endpoint: mean survival time, dose: 12.5 mg/kg/injection, schedule: Q04DX003 (ip), vehicle: saline) is 122 % of control; the T/C (endpoint: mean survival time, dose: 20.0 mg/kg/injection, schedule: Q01DX001 (ip), vehicle: saline) was 150 % of control; the T/C (endpoint: mean survival time, dose: 20.0 mg/kg/injection, schedule: Q01DX005 (ip), vehicle: saline) is 152 % of control; the T/C (endpoint: mean survival time, dose: 20.0 mg/kg/injection, schedule: Q01DX009 (ip), vehicle: saline) was 230 % of control. In addition, the T/C reads like this: (endpoint: mean survival time, dose: 20.0 mg/kg/injection, schedule: Q02DX003 (ip), vehicle: saline) 152 % of control; (endpoint: mean survival time, dose: 20.0 mg/kg/injection, schedule: Q04DX003 (ip), vehicle: saline) 156 % of control; (endpoint: mean survival time, dose: 40.0 mg/kg/injection, schedule: Q01DX001 (ip), vehicle: saline) 200 % of control; (endpoint: mean survival time, dose: 40.0 mg/kg/injection, schedule: Q01DX005 (ip), vehicle: saline) 182 % of control; (endpoint: mean survival time, dose: 40.0 mg/kg/injection, schedule: Q01DX009 (ip), vehicle: saline) 238 % of control; (endpoint: mean survival time, dose: 40.0 mg/kg/injection, schedule: Q02DX003 (ip), vehicle: saline) 166 % of control. The T/C under setting [1] is 180 % of control; the T/C under setting [2] was 122 % of control; the T/C (endpoint: mean survival time, dose: 60.0 mg/kg/injection, schedule: Q01DX001 (ip), vehicle: saline) was 159 % of control; the T/C (endpoint: mean survival time, dose: 60.0 mg/kg/injection, schedule: Q01DX005 (ip), vehicle: saline) is 189 % of control; the T/C (endpoint: mean survival time, dose: 60.0 mg/kg/injection, schedule: Q01DX009 (ip), vehicle: saline) was 230 % of control; the T/C (endpoint: mean survival time, dose: 60.0 mg/kg/injection, schedule: Q02DX003 (ip), vehicle: saline) is 191 % of control. In addition, the T/C is 190 % of control (endpoint: mean survival time, dose: 60.0 mg/kg/injection, schedule: Q04DX003 (ip), vehicle: saline); 162 % of control under setting [3]; 234 % of control (endpoint: mean survival time, dose: 80.0 mg/kg/injection, schedule: Q01DX005 (ip), vehicle: saline); 290 % of control (endpoint: mean survival time, dose: 80.0 mg/kg/injection, schedule: Q01DX009 (ip), vehicle: saline); 189 % of control (endpoint: mean survival time, dose: 80.0 mg/kg/injection, schedule: Q02DX003 (ip), vehicle: saline); 206 % of control (endpoint: mean survival time, dose: 80.0 mg/kg/injection, schedule: Q04DX003 (ip), vehicle: saline). For the same compound, the T/C (endpoint: mean survival time, dose: 100.0 mg/kg/injection, schedule: Q01DX001 (ip), vehicle: saline) is 153 % of control and 265 % of control; the T/C (endpoint: mean survival time, dose: 100.0 mg/kg/injection, schedule: Q01DX005 (ip), vehicle: saline) is 281 % of control; the T/C under setting [4] is 190 % of control and 270 % of control; the T/C (endpoint: mean survival time, dose: 100.0 mg/kg/injection, schedule: Q02DX003 (ip), vehicle: saline) was 215 % of control; the T/C under setting [5] is 165 % of control and 236 % of control; the T/C under setting [6] was 197 % of control. For the same compound, the T/C was 234 % of control (endpoint: mean survival time, dose: 200.0 mg/kg/injection, schedule: Q01DX001 (ip), vehicle: saline); 105 % of control under setting [7]; 228 % of control and 297 % of control under setting [8].

For `[Cl][Pt+2][Cl].[NH-]c1ccccc1F.[NH-]c1ccccc1F`, the T/C (endpoint: mean survival time, dose: 15.63 mg/kg/injection, schedule: Q04DX003 (ip), vehicle: saline with Tween-80) was 112 % of control; the T/C (endpoint: mean survival time, dose: 31.25 mg/kg/injection, schedule: Q04DX003 (ip), vehicle: saline with Tween-80) was 108 % of control; the T/C (endpoint: mean survival time, dose: 62.5 mg/kg/injection, schedule: Q04DX003 (ip), vehicle: saline with Tween-80) was 115 % of control; the T/C (endpoint: mean survival time, dose: 125.0 mg/kg/injection, schedule: Q04DX003 (ip), vehicle: saline with Tween-80) is 93 % of control.

For the compound `CC(=O)Oc1[nH]c(=O)c2cccc3c2c1CCC3`, the T/C is 106 % of control (endpoint: median survival time, dose: 25.0 mg/kg/injection, schedule: Q01DX009 (ip), vehicle: saline with Tween-80); 104 % of control (endpoint: median survival time, dose: 50.0 mg/kg/injection, schedule: Q01DX009 (ip), vehicle: saline with Tween-80); 100 % of control and 104 % of control (endpoint: median survival time, dose: 100.0 mg/kg/injection, schedule: Q01DX009 (ip), vehicle: saline with Tween-80); 97 % of control and 103 % of control (endpoint: median survival time, dose: 200.0 mg/kg/injection, schedule: Q01DX009 (ip), vehicle: saline with Tween-80); 97 % of control and 108 % of control (endpoint: median survival time, dose: 400.0 mg/kg/injection, schedule: Q01DX009 (ip), vehicle: saline with Tween-80).

Turning to `O=C(O)CCC(=O)c1ccc2c(c1)CCCC2`, the T/C was 97 % of control (endpoint: mean survival time, dose: 1.56 mg/kg/injection, schedule: Q04DX002 (ip), vehicle: saline with Tween-80); 97 % of control (endpoint: mean survival time, dose: 3.13 mg/kg/injection, schedule: Q04DX002 (ip), vehicle: saline with Tween-80); 97 % of control (endpoint: mean survival time, dose: 6.25 mg/kg/injection, schedule: Q04DX002 (ip), vehicle: saline with Tween-80); 104 % of control (endpoint: mean survival time, dose: 12.5 mg/kg/injection, schedule: Q04DX002 (ip), vehicle: saline with Tween-80).

Consider `CN(C)c1ccc(C=NCCCN=Cc2ccc(N(C)C)cc2)cc1`, for which the T/C is 96 % of control under setting [9]; 95 % of control under setting [10]; 90 % of control under setting [11]; 107 % of control under setting [12]; 93 % of control under setting [13]; 86 % of control under setting [14].

Consider `OC1(c2ccccc2)CN(Cc2ccccc2)CCO1` (configuration not stated), for which the T/C under setting [1] was 104 % of control; the T/C under setting [2] was 93 % of control; the T/C under setting [4] is 102 % of control; the T/C under setting [5] was 101 % of control; the T/C under setting [7] is 98 % of control; the T/C under setting [8] is 102 % of control.

For `O=S1CCCCO1` (configuration not stated), the T/C is, setting by setting: under setting [3], 95 % of control; under setting [6], 101 % of control.

For `COc1ccc(-c2c3nc(c(-c4ccc(OC)cc4)c4ccc([nH]4)c(-c4ccc(OC)cc4)c4nc(c(-c5ccc(OC)cc5)c5ccc2[nH]5)C=C4)C=C3)cc1`, the T/C is 93 % of control (endpoint: mean survival time, dose: 100.0 mg/kg/injection, schedule: Q04DX003 (ip), vehicle: Klucel (hydroxypropylcellulose) (HPC)); 101 % of control (endpoint: mean survival time, dose: 200.0 mg/kg/injection, schedule: Q04DX003 (ip), vehicle: Klucel (hydroxypropylcellulose) (HPC)); 89 % of control (endpoint: mean survival time, dose: 400.0 mg/kg/injection, schedule: Q04DX003 (ip), vehicle: Klucel (hydroxypropylcellulose) (HPC)).

Consider `CN(Cc1cnc2nc(N)nc(N)c2n1)c1c(Cl)cc(C(=O)NC(CCC(=O)O)C(=O)O)cc1Cl` (configuration not stated), for which the T/C by setting is: (endpoint: mean survival time, dose: 44.0 mg/kg/injection, schedule: Q01DX009 (ip), vehicle: sodium bicarbonate) 224 % of control; (endpoint: mean survival time, dose: 67.0 mg/kg/injection, schedule: Q01DX009 (ip), vehicle: sodium bicarbonate) 256 % of control; (endpoint: mean survival time, dose: 100.0 mg/kg/injection, schedule: Q01DX009 (ip), vehicle: sodium bicarbonate) 193 % of control; (endpoint: mean survival time, dose: 133.0 mg/kg/injection, schedule: Q01DX009 (ip), vehicle: sodium bicarbonate) 170 % of control; (endpoint: mean survival time, dose: 150.0 mg/kg/injection, schedule: Q01DX009 (ip), vehicle: sodium bicarbonate) 116 % of control; (endpoint: mean survival time, dose: 160.0 mg/kg/injection, schedule: Q01DX009 (ip), vehicle: sodium bicarbonate) 123 % of control. Besides, the T/C is 123 % of control (endpoint: median survival time, dose: 125.0 mg/kg/injection, schedule: Q01DX009 (ip), vehicle: sodium bicarbonate) and 112 % of control (endpoint: median survival time, dose: 150.0 mg/kg/injection, schedule: Q01DX009 (ip), vehicle: sodium bicarbonate).

Consider `Cc1ccc(S(=O)(=O)N2CCC(=O)c3ccccc32)cc1`, for which the T/C by setting is: under setting [9], 95 % of control; under setting [10], 101 % of control; under setting [11], 97 % of control; under setting [12], 98 % of control; under setting [13], 95 % of control; under setting [14], 103 % of control.
